Test results published in ChEMBL document CHEMBL4610038, “The synthesis of trifluoromethylated N-nitroaryl-2-amino-1,3-dichloropropane derivatives and their evaluation as potential anti-cancer agents” (Bioorg Med Chem Lett, 2020).

Assays:
MCF7 [1] = assay: Cytotoxicity against human MCF7 cells assessed as cell viability at 100 uM relative to control; type: functional; conditions: read-out: Activity
MDA-MB-231 [2] = assay: Cytotoxicity against human MDA-MB-231 cells assessed as cell viability at 100 uM relative to control; type: functional; conditions: read-out: Activity
MDA-MB-468 [3] = assay: Cytotoxicity against human MDA-MB-468 cells assessed as cell viability at 100 uM relative to control; type: functional; conditions: read-out: Activity
SK-BR-3 [4] = assay: Cytotoxicity against human SKBR3 cells assessed as cell viability at 100 uM relative to control; type: functional; conditions: read-out: Activity
T47D [5] = assay: Cytotoxicity against human T47D cells assessed as cell viability at 100 uM relative to control; type: functional; conditions: read-out: Activity
Caco-2 [6] = assay: Cytotoxicity against human Caco2 cells assessed as cell viability at 100 uM relative to control; type: functional; conditions: read-out: Activity
HCT-116 [7] = assay: Cytotoxicity against human HCT116 cells assessed as cell viability at 100 uM relative to control; type: functional; conditions: read-out: Activity
HT-29 [8] = assay: Cytotoxicity against human HT-29 cells assessed as cell viability at 100 uM relative to control; type: functional; conditions: read-out: Activity
SW48 [9] = assay: Cytotoxicity against human SW48 cells assessed as cell viability at 100 uM relative to control; type: functional; conditions: read-out: Activity
A549 [10] = assay: Cytotoxicity against human A549 cells assessed as cell viability at 100 uM relative to control; type: functional; conditions: read-out: Activity
NCI-H1299 [11] = assay: Cytotoxicity against human H1299 cells assessed as cell viability at 100 uM relative to control; type: functional; conditions: read-out: Activity
CNE [12] = assay: Cytotoxicity against human CNE1 cells assessed as cell viability at 100 uM relative to control; type: functional; conditions: read-out: Activity
[13] = Cytotoxicity against human HK1 cells assessed as cell viability at 100 uM relative to control; type: functional; conditions: HK-1, read-out: Activity
SUNE1 [14] = assay: Cytotoxicity against human SUNE1 cells assessed as cell viability at 100 uM relative to control; type: functional; conditions: read-out: Activity
SH-SY5Y [15] = assay: Cytotoxicity against human SH-SY5Y cells assessed as cell viability at 100 uM relative to control; type: functional; conditions: read-out: Activity
ASPC1 [16] = assay: Cytotoxicity against human AsPC1 cells assessed as cell viability at 100 uM relative to control; type: functional; conditions: read-out: Activity
BXPC-3 [17] = assay: Cytotoxicity against human BxPC3 cells assessed as cell viability at 100 uM relative to control; type: functional; conditions: read-out: Activity
SW1990 [18] = assay: Cytotoxicity against human SW1990 cells assessed as cell viability at 100 uM relative to control; type: functional; conditions: read-out: Activity
[19] = Cytotoxicity against human MCF10A cells assessed as cell viability at 100 uM relative to control; type: cell-based, MCF-10A; conditions: read-out: Activity
[20] = Cytotoxicity against human MRC5 cells assessed as cell viability at 100 uM relative to control; type: cell-based; conditions: read-out: Activity
MCF7 [21] = assay: Cytotoxicity against human MCF7 cells assessed as reduction in cell viability; type: functional, cell-based
MDA-MB-231 [22] = assay: Cytotoxicity against human MDA-MB-231 cells assessed as reduction in cell viability; type: functional, cell-based
MDA-MB-468 [23] = assay: Cytotoxicity against human MDA-MB-468 cells assessed as reduction in cell viability; type: functional, cell-based
SK-BR-3 [24] = assay: Cytotoxicity against human SKBR3 cells assessed as reduction in cell viability; type: functional, cell-based
T47D [25] = assay: Cytotoxicity against human T47D cells assessed as reduction in cell viability; type: functional, cell-based
Caco-2 [26] = assay: Cytotoxicity against human Caco2 cells assessed as reduction in cell viability; type: functional, cell-based
HCT-116 [27] = assay: Cytotoxicity against human HCT116 cells assessed as reduction in cell viability; type: functional, cell-based
HT-29 [28] = assay: Cytotoxicity against human HT-29 cells assessed as reduction in cell viability; type: functional, cell-based
SW48 [29] = assay: Cytotoxicity against human SW48 cells assessed as reduction in cell viability; type: functional, cell-based
A549 [30] = assay: Cytotoxicity against human A549 cells assessed as reduction in cell viability; type: functional, cell-based
NCI-H1299 [31] = assay: Cytotoxicity against human H1299 cells assessed as reduction in cell viability; type: functional, cell-based
CNE [32] = assay: Cytotoxicity against human CNE1 cells assessed as reduction in cell viability; type: functional, cell-based
[33] = Cytotoxicity against human HK1 cells assessed as reduction in cell viability; type: functional, cell-based; conditions: HK-1
SUNE1 [34] = assay: Cytotoxicity against human SUNE1 cells assessed as reduction in cell viability; type: functional, cell-based
SH-SY5Y [35] = assay: Cytotoxicity against human SH-SY5Y cells assessed as reduction in cell viability; type: functional, cell-based
ASPC1 [36] = assay: Cytotoxicity against human AsPC1 cells assessed as reduction in cell viability; type: functional, cell-based
BXPC-3 [37] = assay: Cytotoxicity against human BxPC3 cells assessed as reduction in cell viability; type: functional, cell-based
SW1990 [38] = assay: Cytotoxicity against human SW1990 cells assessed as reduction in cell viability; type: functional, cell-based
MCF-10A = assay: Cytotoxicity against human MCF10A cells assessed as reduction in cell viability; type: cell-based
MRC5 = assay: Cytotoxicity against human MRC5 cells assessed as reduction in cell viability; type: cell-based

| SMILES | viability at 100 µM (MCF7 [1]) [%] | viability at 100 µM (MDA-MB-231 [2]) [%] | viability at 100 µM (MDA-MB-468 [3]) [%] | viability at 100 µM (SK-BR-3 [4]) [%] | viability at 100 µM (T47D [5]) [%] | viability at 100 µM (Caco-2 [6]) [%] | viability at 100 µM (HCT-116 [7]) [%] | viability at 100 µM (HT-29 [8]) [%] | viability at 100 µM (SW48 [9]) [%] | viability at 100 µM (A549 [10]) [%] | viability at 100 µM (NCI-H1299 [11]) [%] | viability at 100 µM (CNE [12]) [%] | viability at 100 µM [13] [%] | viability at 100 µM (SUNE1 [14]) [%] | viability at 100 µM (SH-SY5Y [15]) [%] | viability at 100 µM (ASPC1 [16]) [%] | viability at 100 µM (BXPC-3 [17]) [%] | viability at 100 µM (SW1990 [18]) [%] | viability at 100 µM [19] [%] | viability at 100 µM [20] [%] | other results |
| --- | --- | --- | --- | --- | --- | --- | --- | --- | --- | --- | --- | --- | --- | --- | --- | --- | --- | --- | --- | --- | --- |
| O=[N+]([O-])c1cc(C(F)(F)F)ccc1NC(CCl)CCl | 21.4 | 32.1 | 65.1 | 38.5 | 25.6 | 21.9 | 45.1 | 47.1 | 32.8 | 24.6 | 52.4 | 27.1 | 59.7 | 42.3 | 33.7 | 51.1 | 62.9 | 42.1 | 77.1 | 29.9 | IC50 (MCF7 [21]): 34.3 µM; IC50 (MDA-MB-231 [22]): 54.5 µM; IC50 (MDA-MB-468 [23]): > 100 µM; IC50 (SK-BR-3 [24]): 67.8 µM; IC50 (T47D [25]): 35.1 µM; IC50 (Caco-2 [26]): 39.9 µM; IC50 (HCT-116 [27]): 82.1 µM; IC50 (HT-29 [28]): 87.8 µM; IC50 (SW48 [29]): 62.3 µM; IC50 (A549 [30]): 33.3 µM; IC50 (NCI-H1299 [31]): > 100 µM; IC50 (CNE [32]): 32.1 µM; IC50 [33]: > 100 µM; IC50 (SUNE1 [34]): 92.9 µM; IC50 (SH-SY5Y [35]): 62.5 µM; IC50 (ASPC1 [36]): > 100 µM; IC50 (BXPC-3 [37]): > 100 µM; IC50 (SW1990 [38]): 92.1 µM; IC50 (MCF-10A): > 100 µM; IC50 (MRC5): 62.1 µM |
| O=[N+]([O-])c1ccc(NC(CCl)CCl)cc1C(F)(F)F | 20.5 | 57.4 | 58.6 | 52.7 | 33.2 | 20.9 | 45 | 38.4 | 29.1 | 27.8 | 43.7 | 32.6 | 59.7 | 44.9 | 30.6 | 58.7 | 56.5 | 36.7 | 59.7 | 22.1 | IC50 (MCF7 [21]): 33.1 µM; IC50 (MDA-MB-231 [22]): > 100 µM; IC50 (MDA-MB-468 [23]): > 100 µM; IC50 (SK-BR-3 [24]): > 100 µM; IC50 (T47D [25]): 64.1 µM; IC50 (Caco-2 [26]): 37.1 µM; IC50 (HCT-116 [27]): 83.8 µM; IC50 (HT-29 [28]): 63.1 µM; IC50 (SW48 [29]): 43.4 µM; IC50 (A549 [30]): 70.4 µM; IC50 (NCI-H1299 [31]): > 100 µM; IC50 (CNE [32]): 33.2 µM; IC50 [33]: > 100 µM; IC50 (SUNE1 [34]): 93.1 µM; IC50 (SH-SY5Y [35]): 56.4 µM; IC50 (ASPC1 [36]): > 100 µM; IC50 (BXPC-3 [37]): > 100 µM; IC50 (SW1990 [38]): 55.8 µM; IC50 (MCF-10A): > 100 µM; IC50 (MRC5): 33.9 µM |
| O=[N+]([O-])c1ccccc1NC(CO)CO | 66.6 | 91.8 | 104 | 101 | 76.2 | 95.1 | 76.9 | 86.1 | 102 | 74.9 | 96.7 | 102 | 90.1 | 99.3 | 89.7 | 101 | 102 | 91.9 | 100 | 101 | IC50 (MCF7 [21]): > 100 µM; IC50 (MDA-MB-231 [22]): > 100 µM; IC50 (MDA-MB-468 [23]): > 100 µM; IC50 (SK-BR-3 [24]): > 100 µM; IC50 (T47D [25]): > 100 µM; IC50 (Caco-2 [26]): > 100 µM; IC50 (HCT-116 [27]): > 100 µM; IC50 (HT-29 [28]): > 100 µM; IC50 (SW48 [29]): > 100 µM; IC50 (A549 [30]): > 100 µM; IC50 (NCI-H1299 [31]): > 100 µM; IC50 (CNE [32]): > 100 µM; IC50 [33]: > 100 µM; IC50 (SUNE1 [34]): > 100 µM; IC50 (SH-SY5Y [35]): > 100 µM; IC50 (ASPC1 [36]): > 100 µM; IC50 (BXPC-3 [37]): > 100 µM; IC50 (SW1990 [38]): > 100 µM; IC50 (MCF-10A): > 100 µM; IC50 (MRC5): > 100 µM |
